Patent EP4653443A1, “STEREOISOMER AND DEUTERATED DERIVATIVE OF PYRAZOLOQUINAZOLINE COMPOUND AND USE” (Phil Rivers Technology Co., Ltd, priority 2023, dated 2024)
Values after ≈ are worked out from the molar mass of the structure shown. Like-named read-outs stand apart in the source and are kept apart here.

What was measured:
[1] = Metabolic stability in liver microsomes (human); format: in vitro ADME; details: for Residual Amount (%) 15 min / Residual Amount (%) 30 min / Residual Amount (%) 45 min / Residual Amount (%) 60 min: Human, first line of pair; for half-life at 2 µM / microsomal CLint at 2 µM: pH 7.4
Procedure: (§1) For negative samples, add 80µL of PBS (100mM, pH = 7.4) solution. Vortex at 800 rpm for 10 seconds, then pre-incubate in a 37°C water bath for 10 minutes. • 4) After pre-incubation, add 2 µL of control drug or test compound to each well to initiate the reaction. The reaction is carried out in a 37°C water bath at 60 rpm. • 5) At 0.5, 15, 30, 45, and 60 minutes, take 50 µL of the reaction system from each well and add it to 200 µL of cold methanol solution containing the internal standard to terminate the reaction. • 6) Mix thoroughly and centrifuge at 4000 rpm at 4°C for 30 minutes. • 7) Take 100µL of supernatant and mix with 100µL ultrapure water for liquid-mass analysis. *Internal standards: 50nM alprazolam, 50nM labetalol and 100nM ketoprofen
(§2) The internal standard method is adopted, and the ratio of the sample peak area to the internal standard peak area is used to calculate the residual percentage (taking the ratio of the sample peak area to the internal standard peak area at 0.5 minutes as 100%).

[2] = Metabolic stability in liver microsomes (mouse); format: in vitro ADME; details: for Residual Amount (%) 15 min / Residual Amount (%) 30 min / Residual Amount (%) 45 min / Residual Amount (%) 60 min: Mouse, first line of pair
Procedure: as §1, §2

[3] = Permeability and transporter substrate test in Caco-2 cells (ABBA); format: in vitro ADME; details: human, pH 7.4; for Papp A→B at 2 h, 5 µM: Caco-2, A to B, read-out: Average Papp PappA-B; for Papp B→A at 2 h, 5 µM: Caco-2, B to A, read-out: Average Papp PappB-A; for efflux ratio at 2 h, 5 µM: Caco-2, Papp(B-A)/Papp(A-B), read-out: Efflux Rate (ERa)
Procedure: (§3) Apparent permeability coefficient (Papp, cm/s) and efflux ratio were calculated using Microsoft Excel.

[4] = tested on: Caco-2 cells; test: as above; format: in vitro ADME; details: Caco-2
Procedure: as §3

[5] = Thermodynamic solubility test; format: physicochemical; details: phosphate buffer, aqueous buffer, thermodynamic from solid, pH 7.4, 25°C
Procedure: Weigh 7.098 g Na2HPO4 (Solution A) and dissolve in 500 mL ultrapure water via sonication; weigh 3.40 g KH2PO4 (Solution B) and dissolve in 250 mL ultrapure water via sonication. Slowly add Solution B dropwise to Solution A and adjust the pH to 7.40 ± 0.05.
Shake at 1100 rpm, 25°C for 5 minutes; • i) Add 10 µL of the 1 mg/mL DMSO sample and 10 µL of buffer to 980 µL of methanol, then dilute 10-fold with methanol:water (1:1) as the standard sample for LC-MS/MS analysis.
Solubility was calculated using Excel. Solubility(μM) = (Areafiltered × DFfiltered)/(Areastd × DFstd) × [std] × DFstd [formula]

[6] = tested on: Pancreatic cancer cell line BxPC-3; test: BxPC-3 subcutaneous tumor xenograft mouse model (pancreatic cancer); format: in vivo; details: for TGI: test endpoint, TGITV
[7] = tested on: PSN1 cells; format: in vivo; details: for mice died: 8 mice per group; for TGI: endpoint (day 31), TGITV
Procedure: • M-NSG mice: SPF grade, female, 6-8 weeks old, weighing 16-20 g, purchased from Shanghai Model Organisms Technology Co., Ltd. • PSN1 cells: purchased from ATCC;
PSN1 cells were cultured in an incubator at 37°C and 5% CO2 in RPMI-1640 medium containing 10% inactivated fetal bovine serum. Cells were subcultured by passaging into new culture dishes every 2 to 3 days when they reach confluent.
• 8.2.3.1 PSN1 cells in the logarithmic growth phase were taken and resuspended in PBS. The cell suspension was inoculated subcutaneously into the right flank of M-NSG mice using a 1mL syringe (inoculated cell count: 5E6/mouse + 30%M). The survival status of the mice and the subcutaneous tumor formation were observed every other day. • 8.2.3.2 On the day of grouping, mice were randomly divided into 8 groups with 8 mice in each group based on the average tumor volume (~190 mm^3) and mouse body weight; • 8.2.3.3 The mice were dosed according to the grouping scheme, all by intragastric administration. […]. The hair condition and status of the mice were observed, and the body weight and tumor size were recorded twice a week to calculate TGI%. • 8.2.3.4 Grouping of Test Animals
When the average tumor volume reached ~ 190 mm^3, mice with moderate individual tumor volume were selected for inclusion in the group. The animals were randomly assigned to experimental groups according to tumor volume and mouse weight, with 8 mice in each group. Administration started one day after grouping.
TV = 1/2 × a × b2 [formula] wherein: a represents the long diameter of the tumor; b represents the short diameter of the tumor.
RTV = Vt /Vinitial × 100(%) [formula]
T/C(%) = (TRTV/CRTV) × 100% [formula]
TGI = [1−(TVt/TVinitial)/([…])] × 100% [formula]
wherein, TVt represents the tumor volume of the treatment group at each measurement; TVinitial represents the tumor volume of the treatment group at the time of grouping and administration; CVt represents the tumor volume of the control group at each measurement; CVinitial represents the tumor volume of the control group at the time of grouping and administration.
Body Weight Change Rate = (BWfinal-BWinitial) / BWinitial × 100% [formula] wherein, BWinitial represents the animal body weight at the time of grouping and administration; BWfinal represents the animal body weight at each measurement.
The original data of measurement and observation must be recorded. The analysis and processing are based on the original data, and the results are presented as mean and standard error of the mean (Mean ± SEM). T-test is used to analyze the difference in tumor volume between the control group and the treatment group. P < 0.05 indicates statistical significance.

[8] = in vivo; details: iv
Procedure: The objective of this study is to investigate the pharmacokinetic properties of the disclosed compounds after tail vein intravenous injection (IV) and oral administration (PO) in female CD1 mice. Plasma was sampleed at 0, 0.083, 0.25, 0.5, 1, 2, 4, 7 and 24 hours post-dosing, and the drug concentrations in plasma at different time points were detected by LC-MS/MS, and the relevant pharmacokinetic parameters were calculated using WinNonlin software.
Experimental female CD1 mice were purchased from SPF Laboratory Animal Technology Co., Ltd., aged 6-8 weeks with body weights of 20-30 g. The female CD1 mice were housed in a controlled environment (set temperature at 20-25°C and relative humidity at 40-70%). A 12-hour light/12-hour dark cycle was maintained unless interrupted by study-related events.
Compound solutions are prepared in an ultra-clean workbench and prepared immediately before use, and mixed thoroughly prior to use to ensure formulation homogeneity.
Vehicle composition: 10% DMSO+90% (20%SBE-β-CD) Table 4. Doses Used in IV Administration
Vehicle composition: 10% DMSO + 90% (20%SBE-β-CD) Table 5. Doses Used in PO Administration
Vehicle composition: 0.5% MC + 1% Tween-20 Table 6. Doses Used in PO Administration
Prior to the experiment, the animals were randomly grouped. The mice were fasted for 12 hours before drug administration, and free feeding was resumed 4 hours after administration.
All blood samples were transferred into plastic microcentrifuge tubes containing anticoagulant (EDTA-K2), and then centrifuged at 4000 g for 5 minutes at 4°C. The supernatant was transferred into a microcentrifuge tube without anticoagulant, and the plasma was stored in a -75±15°C refrigerator until detection.
The blood samples were purified by HPLC and analyzed by mass spectrometry to obtain the plasma concentration-time curve of the disclosed compound.
The pharmacokinetic parameters were estimated by non-compartmental model method (calculated by Phoenix WinNonlin software).

[9] = male, CD-1, pH 7.4, Mouse liver microsomes
[10] = 60 mg/kg p.o. q.d. 10 consecutive days
[11] = 60 mg/kg p.o. QD*6 times, during administration
[12] = female, CD1, mouse, plasma, 2 mg/kg
[13] = female, CD1, mouse, plasma, 10 mg/kg
[14] = 90 mg/kg p.o. q.d. 10 consecutive days
[15] = 30 mg/kg p.o. q.d. 10 consecutive days

SMILES	Residual Amount (%) 15 min [1] [%]	Residual Amount (%) 30 min [1] [%]	Residual Amount (%) 45 min [1] [%]	Residual Amount (%) 60 min [1] [%]	half-life at 2 µM ([1]; Human liver microsomes) [h]	microsomal CLint at 2 µM ([1]; Human liver microsomes) [µL/min/mg]	Residual Amount (%) 15 min [2] [%]	Residual Amount (%) 30 min [2] [%]	Residual Amount (%) 45 min [2] [%]	Residual Amount (%) 60 min [2] [%]	half-life at 2 µM [2, 9] [h]	microsomal CLint [2, 9] [µL/min/mg]	Papp A→B at 2 h, 5 µM [3] [×10⁻⁶ cm/s]	Papp B→A at 2 h, 5 µM [3] [×10⁻⁶ cm/s]	efflux ratio at 2 h, 5 µM [3]	Classification Efflux Transporter Substrate [4]	solubility at 24 h [5] [µg/mL]	Mouse Mortality Rate [6, 10] [%]	TGI [6, 10] [%]	Mouse Mortality Rate ([7]; 60 mg/kg p.o. QD*6 times) [%]	also measured
CN1CCN(c2ccc(OC(F)(F)F)c(Nc3ncc4c(n3)-c3c(c(C(N)=O)nn3CCO)CC4)c2)CC1 [NMS-P937, onvansertib, reference compound]	80.23	73.16	69.74	58.94	1.44	16.1	82.56	69.31	61.60	53.17	1.11	20.9	6.09	34.2	5.61	Probable (ERa ≧ 2)	24.8 (≈ 46.6 µM)	25	61	50	mice died ([6]; 60 mg/kg p.o. q.d., 8 mice per group): 2; mice died ([7]; 60 mg/kg p.o. QD*6 times): half; body weight loss [7, 11]: decreased severely; AUC(0-t) [8, 12]: 353 ng·h/mL; Vd [8, 12]: 5.71 L/kg; clearance [8, 12]: 95.7 mL/min/kg; half-life [8, 12]: 1.52 h; AUC(0-t) [8, 13]: 4540 ng·h/mL; Vd [8, 13]: 3.22 L/kg; clearance [8, 13]: 36.9 mL/min/kg; half-life [8, 13]: 3.52 h
[2H]C1([2H])CN(c2ccc(OC(F)(F)F)c(Nc3ncc4c(n3)-c3c(c(C(N)=O)nn3CCO)CC4)c2)C([2H])([2H])[C@H]2CCCN21 [CPD04]	52.72	28.62	21.10	13.41			61.30	39.18	34.10	26.56			4.2	25.1	5.98	Probable (ERa ≧ 2)	3 (≈ 5.33 µM)				half-life ([1]; Human liver microsomes): 0.349 h; microsomal CLint ([1]; Human liver microsomes): 66.2 µL/min/mg; half-life ([2]; Mouse liver microsomes): 0.532 h; microsomal CLint ([2]; Mouse liver microsomes): 43.4 µL/min/mg; Mouse Mortality Rate [6, 14]: 0%; TGI [6, 14]: 53%; Mouse Mortality Rate ([7]; 90 mg/kg p.o. QD*6 times): 0%; mouse death ([7]; 90 mg/kg p.o. QD*6 times): no mouse death was found; TGI ([7]; 90 mg/kg p.o. QD*6 times): 40%; body weight loss ([7]; 90 mg/kg p.o. QD*6 times, throughout the period): no body weight loss was observed; AUC(0-t) ([8]; mouse, in vivo, 10 mg/kg): 3340 ng·h/mL; Vd ([8]; mouse, in vivo, 10 mg/kg): 2.31 L/kg; clearance ([8]; mouse, in vivo, 10 mg/kg): 50.1 mL/min/kg; half-life ([8]; mouse, in vivo, 10 mg/kg): 1.06 h
[2H]C1([2H])N(C)C([2H])([2H])C([2H])([2H])N(c2ccc(OC(F)(F)F)c(Nc3ncc4c(n3)-c3c(c(C(N)=O)nn3CCO)CC4)c2)C1([2H])[2H] [CPD06]	86.05	73.64	68.37	63.15	1.5	15.4	81.80	68.21	64.96	57.01	1.27	18.2	5.18	34.7	6.71	Probable (ERa ≧ 2)	22.6 (≈ 41.8 µM)	0	71	0	Mouse Mortality Rate [6, 15]: 0%; TGI [6, 15]: 33%; toxic symptoms during the treatment ([6]; BxPC-3 tumor-bearing mice): No obvious toxic symptoms were observed; mice died ([7]; 60 mg/kg p.o. QD*6 times): No mice died; body weight loss [7, 11]: ≤ 15%; TGI ([7]; 60 mg/kg p.o. QD*6 times): 53%; AUC(0-t) [8, 13]: 3050 ng·h/mL; Vd [8, 13]: 3.02 L/kg; clearance [8, 13]: 55.1 mL/min/kg; half-life [8, 13]: 1.05 h
